Tested on: Amaranthus retroflexus, Abutilon theophrasti, Alopecurus myosuroides, Avena fatua, Brassica rapa and Echinochloa crus-galli
Assay: Pre-emergence and post-emergence effect on weeds
Format: in vivo
Conditions: 500 g/ha or less; pre- or post-emergence application; one or more of the weed species; two weeks after treatment
Source text: Pre-Emergence Effect on Weeds Seed of various broad-leaf and grass weed species were sown and compound of formula (I), dissolved in a mixture of acetone and water, was applied at a rate of 500 g/ha or less to the soil surface. The weed species used were Amaranthus retroflexus, Abutilon theophrasti, Alopecurus myosuroides, Avena fatua, Brassica rapa and Echinochloa crus-galli. Post-Emergence Effect on Weeds Seed of the weed species Amaranthus retroflexus, Abutilon theophrasti, Alopecurus myosuroides, Avena fatua, Brassica rapa and Echinochloa crus-galli were sown in soil and grown up to a 1-3 leaves stage. A post-emergence application of compound of formula (I), dissolved in a mixture of acetone and water, was applied at a rate of 500 g/ha or less. Two weeks after treatment in the above test methods, weed control was assessed as a percentage reduction in plant growth, in comparison with untreated control.

Row | SMILES | herbicidal activity (weed control assessed as percentage reduction in plant growth in comparison with untreated control)
1 | N#Cc1cccc(Oc2cc(C#N)cc(C#N)c2)c1 [Compound 42, 5-(3-cyanophenoxy)isophthalonitrile] | very good herbicidal activity
2 | N#Cc1cc(C#N)cc(Oc2cccc(Oc3ccnc(Cl)n3)c2)c1 [Compound 1, 5-[3-(2-chloropyrimidin-4-yloxy)phenoxy]isophthalonitrile] | very good herbicidal activity
3 | N#Cc1cc(C#N)cc(Oc2cccc(OC(F)(F)C(F)F)c2)c1 [Compound 44, 5-(3-[1,1,2,2-tetrafluoroethoxy]phenoxy)isophthalonitrile] | very good herbicidal activity

Tested on: not given
Assay: not given
Conditions: not given

Row | SMILES | melting point
4 | N#Cc1cc(C#N)cc(Oc2cccc(Oc3cc(C#N)cc(C#N)c3)c2)c1 [Compound 90, 5-[3-(3,5-dicyanophenoxy)phenoxy]isophthalonitrile] | 212 to 213 °C
5 | N#Cc1cc(C#N)cc(Oc2ccnc(Oc3cc(Cl)cc(Cl)c3)n2)c1 [Compound 84, 5-[2-(3,5-dichlorophenoxy)pyrimidin-4-yloxy]isophthalonitrile] | 196 °C
6 | N#Cc1cc(C#N)cc(Oc2cccc(O)c2)c1 [Compound 49, 5-(3-hydroxyphenoxy)isophthalonitrile] | 143 °C
7 | N#Cc1cc(C#N)cc(Oc2nccc(Oc3cc(Cl)cc(Cl)c3)n2)c1 [Compound 83, 5-[4-(3,5-dichlorophenoxy)pyrimidin-2-yloxy] isophthalonitrile] | 156 °C
